The numbers were not newly measured in US8071133B2, “Oral dosage forms of water insoluble drugs and methods of making the same” (Stiefel Laboratories, Inc., priority 2001, dated 2011), which cites them from elsewhere.

On to `CC(C)(C)NC(=O)[C@@H]1C[C@@H]2CCCC[C@@H]2CN1C[C@@H](O)[C@H](Cc1ccccc1)NC(=O)[C@H](CC(N)=O)NC(=O)c1ccc2ccccc2n1` [Saquinavir], for which the solubility in water result is on record as “approximately 10 microgram per mL”.
